Source: patent publication US20070203091A1, “Methods and therapeutic compositions for improving liver, blood flow and skeletal muscle functions in advanced diseases and aging” (priority 2006, published 2007)

Tests used:
[1] = Laboratory parameters, chemistry: LDH, bilirubin, SGOT, SGPT, Phase I study; format: in vivo, human
From the text: Serum LDH levels are an established strong independent negative prognostic factor, inversely related to survival in a great variety of adverse clinical conditions. In advanced refractory cancers, high LDH and low Karnofsky's performance status are among the strongest established independent negative prognostic factors of survival and quality of life (29).

[2] = Voluntary (skeletal) muscle strength, hand grip strength, Phase I study; format: in vivo, human; conditions: for Skeletal Muscle Strength, Change from Baseline, Mean / Skeletal Muscle Strength, Change from Baseline, Median / Skeletal Muscle Strength, Observed Values, Mean / Skeletal Muscle Strength, Observed Values, Median: ITT; for Skeletal Muscle Strength, Change from Baseline, Mean: test concentration or dose not given here; for Skeletal Muscle Strength, Change from Baseline, Median: test concentration or dose not given here; for Skeletal Muscle Strength, Observed Values, Mean: test concentration or dose not given here; for Skeletal Muscle Strength, Observed Values, Median: test concentration or dose not given here
Description: Procedure for measuring voluntary (skeletal) muscle strength-hand grip strength • 1. This measurement will be performed in the standing position (without support) using the patients' dominant hand in the horizontal outstretched position of 90 degrees to the body. • 2. Measurements will be taken using a calibrated and well maintained hand-held commercially available dynamometer. • 3. All measurements that are performed during the treatment period will be taken prior to placement of intravenous cannula and prior to study treatment administration • 4. Patients will undertake the hand-grip strength maneuver after initial training—with encouragement from the observer to “do their best”. This will be performed ×3 with no more than 30 seconds between attempts. • 5. The maximal value of the three attempts will be recorded as the hand-grip strength on that day. • 6. The testing will be performed and documented by the same individual member of the research team (as often as is practically possible). • The dynamometer instrument will be to the greatest extent possible the same instrument for any one patient throughout the study and will be initially calibrated and checked for accuracy prior to the study and thereafter on a regular basis. ATP Therapeutics, Inc.

[3] = Week 1 (Infusion 1), baseline, N=15
[4] = patients 502-505, week 1 (pre-dose) to week 13 (follow-up)
[5] = Week <1 (Screening), baseline, N=15

## Nc1ncnc2c1ncn2[C@@H]1O[C@H](COP(=O)(O)OP(=O)(O)OP(=O)(O)O)[C@@H](O)[C@H]1O [ATP, adenosine 5′-triphosphate]
[1]; [3]
  LDH, Change from Baseline, Median: 0.0 U/L
  LDH, Observed Values, Mean: 349.0 U/L
  LDH, Observed Values, Median: 265.0 U/L
  Phosphorus, Change from Baseline, Mean: 0.0 mg/dL
  Phosphorus, Change from Baseline, Median: 0.0 mg/dL
  Phosphorus, Observed Values, Mean: 3.1 mg/dL
  Phosphorus, Observed Values, Median: 3.2 mg/dL
  Total Bilirubin, Change from Baseline, Mean: 0.0 mg/dL
  Total Bilirubin, Change from Baseline, Median: 0.0 mg/dL
  Total Bilirubin, Observed Values, Mean: 0.7 mg/dL
  Total Bilirubin, Observed Values, Median: 0.4 mg/dL
[1]; Week 2 (Infusion 2), N=14
  LDH, Change from Baseline, Median: 24.0 U/L
  LDH, Observed Values, Mean: 386.6 U/L
  LDH, Observed Values, Median: 325.5 U/L
  Phosphorus, Change from Baseline, Mean: 0.1 mg/dL
  Phosphorus, Change from Baseline, Median: 0.1 mg/dL
  Phosphorus, Observed Values, Mean: 3.2 mg/dL
  Phosphorus, Observed Values, Median: 3.2 mg/dL
  Total Bilirubin, Change from Baseline, Mean: -0.1 mg/dL
  Total Bilirubin, Change from Baseline, Median: 0.0 mg/dL
  Total Bilirubin, Observed Values, Mean: 0.6 mg/dL
  Total Bilirubin, Observed Values, Median: 0.4 mg/dL
[1]; Week 4 (Infusion 4), N=11
  LDH, Change from Baseline, Median: 3.0 U/L
  LDH, Observed Values, Mean: 277.4 U/L
  LDH, Observed Values, Median: 211.0 U/L
  Phosphorus, Change from Baseline, Mean: -0.1 mg/dL
  Phosphorus, Change from Baseline, Median: 0.0 mg/dL
  Phosphorus, Observed Values, Mean: 3.1 mg/dL
  Phosphorus, Observed Values, Median: 3.0 mg/dL
  Total Bilirubin, Change from Baseline, Mean: 0.2 mg/dL
  Total Bilirubin, Change from Baseline, Median: -0.1 mg/dL
  Total Bilirubin, Observed Values, Mean: 0.8 mg/dL
  Total Bilirubin, Observed Values, Median: 0.2 mg/dL
[1]; Week 6 (Infusion 6), N=9
  LDH, Change from Baseline, Median: −20.0 U/L
  LDH, Observed Values, Mean: 265.6 U/L
  LDH, Observed Values, Median: 173.0 U/L
  Phosphorus, Change from Baseline, Mean: -0.1 mg/dL
  Phosphorus, Change from Baseline, Median: 0.2 mg/dL
  Phosphorus, Observed Values, Mean: 3.1 mg/dL
  Phosphorus, Observed Values, Median: 3.3 mg/dL
  Total Bilirubin, Change from Baseline, Mean: 1.2 mg/dL
  Total Bilirubin, Change from Baseline, Median: -0.1 mg/dL
  Total Bilirubin, Observed Values, Mean: 1.9 mg/dL
  Total Bilirubin, Observed Values, Median: 0.3 mg/dL
[1]; Week 8 (Infusion 8), N=6
  LDH, Change from Baseline, Median: −25.0 U/L
  LDH, Observed Values, Mean: 245.0 U/L
  LDH, Observed Values, Median: 161.0 U/L
[1]; Week 8 (Infusion 8), N=7
  Phosphorus, Change from Baseline, Mean: 0.3 mg/dL
  Phosphorus, Change from Baseline, Median: 0.0 mg/dL
  Phosphorus, Observed Values, Mean: 3.4 mg/dL
  Phosphorus, Observed Values, Median: 3.4 mg/dL
  Total Bilirubin, Change from Baseline, Mean: -0.0 mg/dL
  Total Bilirubin, Change from Baseline, Median: -0.1 mg/dL
  Total Bilirubin, Observed Values, Mean: 0.4 mg/dL
  Total Bilirubin, Observed Values, Median: 0.4 mg/dL
[1]; Week 10 (Follow-up), N=5
  LDH, Change from Baseline, Median: −15.0 U/L
  LDH, Observed Values, Mean: 214.6 U/L
  LDH, Observed Values, Median: 155.0 U/L
[1]; Week 10 (Follow-up), N=6
  Phosphorus, Change from Baseline, Mean: 0.0 mg/dL
  Phosphorus, Change from Baseline, Median: 0.3 mg/dL
  Phosphorus, Observed Values, Mean: 3.2 mg/dL
  Phosphorus, Observed Values, Median: 3.3 mg/dL
  Total Bilirubin, Change from Baseline, Mean: 0.1 mg/dL
  Total Bilirubin, Change from Baseline, Median: -0.1 mg/dL
  Total Bilirubin, Observed Values, Mean: 0.5 mg/dL
  Total Bilirubin, Observed Values, Median: 0.4 mg/dL
[1]; Week 13 (Follow-up), N=5
  LDH, Change from Baseline, Median: −27.0 U/L
  LDH, Observed Values, Mean: 168.2 U/L
  LDH, Observed Values, Median: 158.0 U/L
  Phosphorus, Change from Baseline, Mean: -0.0 mg/dL
  Phosphorus, Change from Baseline, Median: 0.2 mg/dL
  Phosphorus, Observed Values, Mean: 3.2 mg/dL
  Phosphorus, Observed Values, Median: 3.2 mg/dL
[1]; Week 13 (Follow-up), N=6
  Total Bilirubin, Change from Baseline, Mean: 0.1 mg/dL
  Total Bilirubin, Change from Baseline, Median: 0.1 mg/dL
  Total Bilirubin, Observed Values, Mean: 0.4 mg/dL
  Total Bilirubin, Observed Values, Median: 0.4 mg/dL
[1]; [4]
  SGOT (serum glutamate oxaloacetate transaminase): Consistent decreases
  SGPT (serum glutamate pyruvate transaminase): Consistent decreases
  serum LDH (lactate dehydrogenase): Consistent decreases
[1]; week 13 of treatment
  serum levels of bilirubin: remained stable
  serum levels of lactate dehydrogenase (LDH): dropped
[2]; Week 1 (Infusion 1), N=6
  Skeletal Muscle Strength, Change from Baseline, Mean: -1.7 kg
  Skeletal Muscle Strength, Change from Baseline, Median: -1.5 kg
  Skeletal Muscle Strength, Observed Values, Mean: 38.5 kg
  Skeletal Muscle Strength, Observed Values, Median: 35.0 kg
[2]; Week 2 (Infusion 2), N=14
  Skeletal Muscle Strength, Change from Baseline, Mean: -1.4 kg
  Skeletal Muscle Strength, Change from Baseline, Median: -2.0 kg
  Skeletal Muscle Strength, Observed Values, Mean: 34.6 kg
  Skeletal Muscle Strength, Observed Values, Median: 34.0 kg
[2]; Week 4 (Infusion 4), N=11
  Skeletal Muscle Strength, Change from Baseline, Mean: -4.1 kg
  Skeletal Muscle Strength, Change from Baseline, Median: -2.0 kg
  Skeletal Muscle Strength, Observed Values, Mean: 31.5 kg
  Skeletal Muscle Strength, Observed Values, Median: 32.0 kg
[2]; Week 8 (Infusion 8), N=7
  Skeletal Muscle Strength, Change from Baseline, Mean: -2.4 kg
  Skeletal Muscle Strength, Change from Baseline, Median: -2.0 kg
  Skeletal Muscle Strength, Observed Values, Mean: 30.0 kg
  Skeletal Muscle Strength, Observed Values, Median: 26.0 kg
[2]; Week 10 (Follow-up), N=6
  Skeletal Muscle Strength, Change from Baseline, Mean: 1.8 kg
  Skeletal Muscle Strength, Change from Baseline, Median: -3.0 kg
  Skeletal Muscle Strength, Observed Values, Mean: 33.7 kg
  Skeletal Muscle Strength, Observed Values, Median: 30.0 kg
[2]; Week 13 (follow-up), N=4
  Skeletal Muscle Strength, Change from Baseline, Mean: 6.3 kg
  Skeletal Muscle Strength, Change from Baseline, Median: -1.0 kg
  Skeletal Muscle Strength, Observed Values, Mean: 32.5 kg
  Skeletal Muscle Strength, Observed Values, Median: 26.0 kg
[2]; [5]
  Skeletal Muscle Strength, Change from Baseline, Mean: 0.0 kg
  Skeletal Muscle Strength, Change from Baseline, Median: 0.0 kg
  Skeletal Muscle Strength, Observed Values, Mean: 35.1 kg
  Skeletal Muscle Strength, Observed Values, Median: 35.0 kg
[2]; beginning at week 8 and up to week 13
  skeletal muscle strength: stabilize and improve
[2]; patients 502-505, screening (week <1) to week 8 (last infusion cycle)
  Skeletal Muscle Strength (voluntary): Small increase
